Measured values from patent US10765114B2, “4-amino-6-(pyridyl and 2-substitutedphenyl)-picolinates and 6-amino-2-(pyridyl and 2-substitutedphenyl)-pyrimidine-4-carboxylates and their use as herbicides” (Dow AgroSciences LLC, priority 2013, dated 2020).
Like-named read-outs stand apart in the source and are kept apart here.

Key:
[1] = test system: Key Grass and Sedge Weeds as well as Grass Crops; assay: Post-Emergent Test II (Table 6); type: in vivo; settings: post-emergence, 336 h, 14 days after application; for pest or weed control at 70 g/ha: 70 g ai/ha; for pest or weed control at 140 g/ha: 140 g ai/ha
Method in brief: (§1)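 Seedlings are raised 7-21 days in Metro-Mix 360 (pH 6.0-6.8) under greenhouse conditions, then sprayed at the first or second true leaf stage. Application is 187 L/ha, with serial rates down to 1/16× of the highest. Plants are subirrigated, and percent injury is rated visually after 14 days.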

[2] = test system: Key Broadleaf Weed and Crop Species; assay: Post-Emergent Test II (Table 5); type: in vivo; settings: post-emergence, 336 h; for pest or weed control at 70 g/ha: application rate 70 (kg ai/ha; footnote: g ai/ha); for pest or weed control at 140 g/ha: application rate 140 (kg ai/ha; footnote: g ai/ha)
Method in brief: as §1

[3] = CYPSS, read-out: Visual Growth Reduction (%) 14 Days After Application CYPSS
[4] = DIGSA: crabgrass (Digitaria sanguinalis), read-out: Visual Growth Reduction (%) 14 Days After Application DIGSA
[5] = ECHSS, read-out: Visual Growth Reduction (%) 14 Days After Application ECHSS
[6] = ORYSS (crop), read-out: Visual Growth Reduction (%) 14 Days After Application ORYSS
[7] = SETFA: giant foxtail (Setaria faberi), read-out: Visual Growth Reduction (%) 14 Days After Application SETFA
[8] = SORVU: grain sorghum (Sorghum vulgare), read-out: Visual Growth Reduction (%) 14 Days After Application SORVU
[9] = TRZSS (crop), read-out: Visual Growth Reduction (%) 14 Days After Application TRZSS
[10] = ZEAMX: maize, corn (Zea mays), read-out: Visual Growth Reduction (%) 14 Days After Application ZEAMX
[11] = Abutilon theophrasti, ABUTH: velvetleaf (Abutilon theophrasti), read-out: Visual Growth Reduction (%) 14 Days After Application ABUTH
[12] = Amaranthus retroflexus, AMARE: redroot pigweed (Amaranthus retroflexus), read-out: Visual Growth Reduction (%) 14 Days After Application AMARE
[13] = Brassica napus, BRSSS: oilseed rape, canola (Brassica napus), read-out: Visual Growth Reduction (%) 14 Days After Application BRSSS
[14] = Chenopodium album, CHEAL: lambsquarters (Chenopodium album), read-out: Visual Growth Reduction (%) 14 Days After Application CHEAL
[15] = Euphorbia heterophylla, EPHHL: wild poinsettia (Euphorbia heterophylla), read-out: Visual Growth Reduction (%) 14 Days After Application EPHHL
[16] = Helianthus annuus, HELAN: sunflower (Helianthus annuus), read-out: Visual Growth Reduction (%) 14 Days After Application HELAN
[17] = Viola tricolor, VIOTR: wild pansy (Viola tricolor), read-out: Visual Growth Reduction (%) 14 Days After Application VIOTR

Compound | pest or weed control at 70 g/ha [1, 3] [%] | pest or weed control at 140 g/ha [1, 3] [%] | pest or weed control at 70 g/ha [1, 4] [%] | pest or weed control at 140 g/ha [1, 4] [%] | pest or weed control at 70 g/ha [1, 5] [%] | pest or weed control at 140 g/ha [1, 5] [%] | pest or weed control at 70 g/ha [1, 6] [%] | pest or weed control at 140 g/ha [1, 6] [%] | pest or weed control at 70 g/ha [1, 7] [%] | pest or weed control at 140 g/ha [1, 7] [%] | pest or weed control at 70 g/ha [1, 8] [%] | pest or weed control at 140 g/ha [1, 8] [%] | pest or weed control at 70 g/ha [1, 9] [%] | pest or weed control at 140 g/ha [1, 9] [%] | pest or weed control at 70 g/ha [1, 10] [%] | pest or weed control at 140 g/ha [1, 10] [%] | melting point [°C] | pest or weed control at 70 g/ha [2, 11] [%] | pest or weed control at 140 g/ha [2, 11] [%] | pest or weed control at 70 g/ha [2, 12] [%] | other results
Nc1c(F)c(-c2ccc(OC(F)F)nc2)nc(C(=O)O)c1Cl [Compound 66] | 45 to 59 | 45 to 59 | 60 to 74 | 60 to 74 | 75 to 84 | 75 to 84 | 0 to 29 | 0 to 29 | 60 to 74 | 60 to 74 | 30 to 44 | 75 to 84 | 45 to 59 | 60 to 74 | 60 to 74 | 60 to 74 | 134 to 136 | 75 to 84 | 85 to 94 | 0 to 29 | pest or weed control at 140 g/ha [2, 12]: 0 to 29%; pest or weed control at 70 g/ha [2, 13]: 0 to 29%; pest or weed control at 140 g/ha [2, 13]: 0 to 29%; pest or weed control at 70 g/ha [2, 14]: 85 to 94%; pest or weed control at 140 g/ha [2, 14]: 95 to 100%; pest or weed control at 70 g/ha [2, 15]: 95 to 100%; pest or weed control at 140 g/ha [2, 15]: 95 to 100%; pest or weed control at 70 g/ha [2, 16]: 85 to 94%; pest or weed control at 140 g/ha [2, 16]: 85 to 94%; pest or weed control at 70 g/ha [2, 17]: 60 to 74%; pest or weed control at 140 g/ha [2, 17]: 60 to 74%
COC(=O)c1nc(-c2ccc(C(F)(F)F)nc2)c(C)c(N)c1Cl [Compound 32] | 95 to 100 | 95 to 100 | 75 to 84 | 75 to 84 | 85 to 94 | 85 to 94 | 0 to 29 | 0 to 29 | 85 to 94 | 85 to 94 | 60 to 74 | 75 to 84 | 60 to 74 | 60 to 74 | 60 to 74 | 60 to 74 | 145 | 45 to 59 | 85 to 94 | 0 to 29 | pest or weed control at 140 g/ha [2, 12]: 0 to 29%; pest or weed control at 70 g/ha [2, 13]: 60 to 74%; pest or weed control at 140 g/ha [2, 13]: 75 to 84%; pest or weed control at 70 g/ha [2, 14]: 85 to 94%; pest or weed control at 140 g/ha [2, 14]: 85 to 94%; pest or weed control at 70 g/ha [2, 15]: 0 to 29%; pest or weed control at 140 g/ha [2, 15]: 0 to 29%; pest or weed control at 70 g/ha [2, 16]: 95 to 100%; pest or weed control at 140 g/ha [2, 16]: 95 to 100%; pest or weed control at 70 g/ha [2, 17]: 45 to 59%; pest or weed control at 140 g/ha [2, 17]: 75 to 84%
COC(=O)c1nc(-c2ccc(C)nc2)c(F)c(N)c1Cl [Compound 90] | 0 to 29 | 0 to 29 | 0 to 29 | 45 to 59 | 75 to 84 | 75 to 84 | 0 to 29 | 0 to 29 | 45 to 59 | 60 to 74 | 45 to 59 | 45 to 59 | 30 to 44 | 30 to 44 | 95 to 100 | 95 to 100 | 191 | 85 to 94 | 95 to 100 | 95 to 100 | pest or weed control at 140 g/ha [2, 12]: 95 to 100%; pest or weed control at 70 g/ha [2, 13]: 60 to 74%; pest or weed control at 140 g/ha [2, 13]: 75 to 84%; pest or weed control at 70 g/ha [2, 14]: 95 to 100%; pest or weed control at 140 g/ha [2, 14]: 95 to 100%; pest or weed control at 70 g/ha [2, 15]: 85 to 94%; pest or weed control at 140 g/ha [2, 15]: 95 to 100%; pest or weed control at 70 g/ha [2, 16]: 95 to 100%; pest or weed control at 140 g/ha [2, 16]: 95 to 100%; pest or weed control at 70 g/ha [2, 17]: 0 to 29%; pest or weed control at 140 g/ha [2, 17]: 45 to 59%
Cc1c(-c2cc(N)c(Cl)c(C(=O)O)n2)ccc(F)c1F [Compound 87] | 0 to 29 | 0 to 29 | 0 to 29 | 0 to 29 | 0 to 29 | 0 to 29 | 0 to 29 | 0 to 29 | 0 to 29 | 0 to 29 | 0 to 29 | 0 to 29 | 0 to 29 | 0 to 29 | 0 to 29 | 0 to 29 | 163 to 165 | 95 to 100 | 95 to 100 | 95 to 100 | pest or weed control at 140 g/ha [2, 12]: 95 to 100%; pest or weed control at 70 g/ha [2, 13]: 85 to 94%; pest or weed control at 140 g/ha [2, 13]: 85 to 94%; pest or weed control at 70 g/ha [2, 14]: 95 to 100%; pest or weed control at 140 g/ha [2, 14]: 95 to 100%; pest or weed control at 70 g/ha [2, 15]: 0 to 29%; pest or weed control at 140 g/ha [2, 15]: 0 to 29%; pest or weed control at 70 g/ha [2, 16]: 85 to 94%; pest or weed control at 140 g/ha [2, 16]: 95 to 100%; pest or weed control at 70 g/ha [2, 17]: 0 to 29%; pest or weed control at 140 g/ha [2, 17]: 0 to 29%
